Reference: ChEMBL document CHEMBL3044741, “Synthesis of novel biologically active methylene derivatives of sydnones” (Med Chem Res, 2013)
≈ marks a conversion by molar mass, not a printed value.

How the values were obtained:
Candida albicans [1] = assay: Antifungal activity against Candida albicans MTCC 227 at 250 ug/ml after 74 hrs by Kirby-Bauer method; format: functional; conditions: MTCC 227, 74 h, read-out: IZ
Streptococcus pyogenes [2] = assay: Antibacterial activity against Streptococcus pyogenes MTCC 442 at 250 ug/ml after 24 hrs by Kirby-Bauer method; format: functional; conditions: MTCC 442, 24 h, read-out: IZ
Pseudomonas aeruginosa [3] = assay: Antibacterial activity against Pseudomonas aeruginosa MTCC 424 at 250 ug/ml after 24 hrs by Kirby-Bauer method; format: functional; conditions: MTCC 424, 24 h, read-out: IZ
Streptococcus pyogenes [4] = assay: Antibacterial activity against Streptococcus pyogenes MTCC 442 after 24 hrs by broth dilution method; format: functional; conditions: MTCC 442, 24 h
Aspergillus clavatus [5] = assay: Antifungal activity against Aspergillus clavatus MTCC 1323; format: functional
[6] = system: Human immunodeficiency virus 1; assay: Antiviral activity against HIV1 3B infected in MT4 cells assessed as inhibition of virus-induced cytopathogenicity by MTT assay; format: functional, organism-based; conditions: Human immunodeficiency virus 1, 3B
Pseudomonas aeruginosa [7] = assay: Antibacterial activity against Pseudomonas aeruginosa MTCC 424 after 24 hrs by broth dilution method; format: functional; conditions: MTCC 424, 24 h
[8] = Selectivity index, ratio of CC50 for human MT4 cells to IC50 for HIV2 ROD; format: functional
Staphylococcus aureus [9] = assay: Antibacterial activity against Staphylococcus aureus MTCC 96 at 250 ug/ml after 24 hrs by Kirby-Bauer method; format: functional; conditions: MTCC 96, 24 h, read-out: IZ
Aspergillus niger [10] = assay: Antifungal activity against Aspergillus niger MTCC 282 at 250 ug/ml after 74 hrs by Kirby-Bauer method; format: functional; conditions: MTCC 282, 74 h, read-out: IZ
[11] = Cytotoxicity against human MT4 cells by MTT assay; format: cell-based
Human alphaherpesvirus 3 [12] = assay: Antiviral activity against thymidine kinase-deficient Varicella-zoster virus infected in HEL cells assessed as reduction in plaque formation; format: functional, organism-based; conditions: Human alphaherpesvirus 3, HEL
Cytomegalovirus [13] = assay: Antiviral activity against Cytomegalovirus AD-169 infected in HEL cells assessed as reduction in plaque formation; format: functional, organism-based; conditions: Human betaherpesvirus 5, AD-169, HEL
Candida albicans [14] = assay: Antifungal activity against Candida albicans MTCC 227; format: functional
[15] = system: Human immunodeficiency virus 2; assay: Antiviral activity against HIV2 ROD infected in MT4 cells assessed as inhibition of virus-induced cytopathogenicity by MTT assay; format: functional, organism-based; conditions: Human immunodeficiency virus 2, ISOLATE ROD
Escherichia coli [16] = assay: Antibacterial activity against Escherichia coli MTCC 443 at 250 ug/ml after 24 hrs by Kirby-Bauer method; format: functional; conditions: MTCC 443, 24 h, read-out: IZ
Aspergillus niger [17] = assay: Antifungal activity against Aspergillus niger MTCC 282; format: functional
Staphylococcus aureus [18] = assay: Antibacterial activity against Staphylococcus aureus MTCC 96 after 24 hrs by broth dilution method; format: functional; conditions: MTCC 96, 24 h
Cytomegalovirus [19] = assay: Antiviral activity against Cytomegalovirus Davis in HEL cells assessed as reduction in plaque formation; format: functional, organism-based; conditions: Human betaherpesvirus 5, Davis
Escherichia coli [20] = assay: Antibacterial activity against Escherichia coli MTCC 443 after 24 hrs by broth dilution method; format: functional; conditions: MTCC 443, 24 h
Aspergillus clavatus [21] = assay: Antifungal activity against Aspergillus clavatus MTCC 1323 at 250 ug/ml after 74 hrs by Kirby-Bauer method; format: functional; conditions: MTCC 1323, 74 h, read-out: IZ
[22] = Selectivity index, ratio of CC50 for human MT4 cells to IC50 for HIV1 3B; format: functional
[23] = Cytotoxicity against human HEL cells; format: cell-based
Human alphaherpesvirus 3 [24] = assay: Antiviral activity against Varicella-zoster virus Oka expressing thymidine kinase infected in HEL cells assessed as reduction in plaque formation; format: functional, organism-based; conditions: Human alphaherpesvirus 3, strain Oka vaccine
[25] = Cytotoxicity against human HEL cells assessed as alteration in cell morphology; format: cell-based

Structure (SMILES) | zone of inhibition at 250 µg/mL (Candida albicans [1]) [mm] | zone of inhibition at 250 µg/mL (Streptococcus pyogenes [2]) [mm] | zone of inhibition at 250 µg/mL (Pseudomonas aeruginosa [3]) [mm] | MIC (Streptococcus pyogenes [4]) [µg/mL] | MIC (Aspergillus clavatus [5]) [µg/mL] | IC50 [6] [µg/mL] | MIC (Pseudomonas aeruginosa [7]) [µg/mL] | Ratio CC50/IC50 [8] | zone of inhibition at 250 µg/mL (Staphylococcus aureus [9]) [mm] | zone of inhibition at 250 µg/mL (Aspergillus niger [10]) [mm] | CC50 [11] [µg/mL] | EC50 (Human alphaherpesvirus 3 [12]) [µg/mL] | EC50 (Cytomegalovirus [13]) [µg/mL] | MIC (Candida albicans [14]) [µg/mL] | IC50 [15] [µg/mL] | zone of inhibition at 250 µg/mL (Escherichia coli [16]) [mm] | MIC (Aspergillus niger [17]) [µg/mL] | MIC (Staphylococcus aureus [18]) [µg/mL] | EC50 (Cytomegalovirus [19]) [µg/mL] | MIC (Escherichia coli [20]) [µg/mL] | other results
CN1CCN(Cc2c([O-])on[n+]2-c2ccc(Cc3ccc(-[n+]4noc([O-])c4CN4CCN(C)C(c5ccccc5)C4)cc3)cc2)CC1c1ccccc1 (stereo not given) | 18 | 18 | 18 | 250 (≈ 351 µM) | 500 (≈ 701 µM) | > 14 | 250 (≈ 351 µM) | <1 | 16 | 20 | 14 (≈ 19.6 µM) | > 20 | > 20 | 500 (≈ 701 µM) | > 14 | 21 | 1000 (≈ 1400 µM) | 500 (≈ 701 µM) | > 20 | 100 (≈ 140 µM) | zone of inhibition at 250 µg/mL (Aspergillus clavatus [21]): 23 mm; Ratio CC50/IC50 [22]: <1; CC50 [23]: 36.8 µg/mL (≈ 51.6 µM); EC50 (Human alphaherpesvirus 3 [24]): > 20 µg/mL; MCC [25]: 100 µg/mL
[O-]c1on[n+](-c2ccc(Cc3ccc(-[n+]4noc([O-])c4CN4CCN(c5cccc(Cl)c5Cl)CC4)cc3)cc2)c1CN1CCN(c2cccc(Cl)c2Cl)CC1 | 21 | 18 | 17 | 200 (≈ 243 µM) | 1000 (≈ 1220 µM) | > 20.8 | 250 (≈ 304 µM) | <1 | 21 | 23 | 20.8 (≈ 25.3 µM) | > 4 | 12.6 (≈ 15.3 µM) | 1000 (≈ 1220 µM) | > 20.8 | 21 | 250 (≈ 304 µM) | 125 (≈ 152 µM) | > 20 | 125 (≈ 152 µM) | zone of inhibition at 250 µg/mL (Aspergillus clavatus [21]): 23 mm; Ratio CC50/IC50 [22]: <1; CC50 [23]: 28.7 µg/mL (≈ 34.9 µM); EC50 (Human alphaherpesvirus 3 [24]): > 4 µg/mL; MCC [25]: 100 µg/mL
Cc1ccc(-[n+]2noc([O-])c2CN2CCCCC2)cc1 | 21 | 18 | 21 | 200 (≈ 732 µM) | 250 (≈ 915 µM) | > 18.7 | 250 (≈ 915 µM) | <1 | 16 | 24 | 18.7 (≈ 68.3 µM) | > 20 | > 20 | 250 (≈ 915 µM) | > 18.7 | 21 | 500 (≈ 1830 µM) | 500 (≈ 1830 µM) | > 20 | 100 (≈ 366 µM) | zone of inhibition at 250 µg/mL (Aspergillus clavatus [21]): 25 mm; Ratio CC50/IC50 [22]: <1; CC50 [23]: 28.5 µg/mL (≈ 104 µM); EC50 (Human alphaherpesvirus 3 [24]): > 20 µg/mL; MCC [25]: 100 µg/mL
